We go through four compounds from US6384055B1, “Utilization of derivatives of tetrahydropyridines (or 4-hydroxypiperidines)-butylazols in the preparation of a medicament for the treatment of pain” (Laboratorios Del Dr. Esteves, S.A., priority 1998, dated 2002).

Assay [1] relates to Swiss albino mice. Put plainly: assay of contortions induced by phenylbenzoquinone. The class given is in vivo. Conditions: for ED50: Mus musculus.
Assay [2] deals with Swiss albino mice. Put plainly: hot-plate assay. Format: in vivo. Conditions: Mus musculus, 0.5 h, sc, hot-plate 55° C., 30 minutes after administration, read-out: ED-50 hot-plate assay (55° C.).
Experimental: The product under study was administered s.c. or i.p. and 30 minutes later the analgesic effect was registered. For this the animals were placed on a metallic surface kept at 50° C. or 55° C. and the time registered (latency) until the licked their hind legs and a jump. The analgesic activity was calculated at each dose, comparing the potency of the treated group with the control group. Using the results obtained the ED-50 was calculated.
[3] abbreviates: mice, oral route, dose inhibiting by 50% the contortions induced by phenylbenzoquinone i.p. 60 minutes after product.
Setting [4] is: mice, s.c. route, dose inhibiting by 50% the contortions induced by phenylbenzoquinone i.p. 30 minutes after product.

Turning to `Cc1c(N(C)CS(=O)(=O)[O-])c(=O)n(-c2ccccc2)n1C.[Na+]` [Dipirone, dipirone], in assay [1] (setting [3]), the “ED-50 Oral route” value turned out to be 223 mg/kg. For the same compound, the “ED-50 S.C. route” value in assay [1] (setting [4]) worked out at 24 mg/kg.

In the case of `CC(=O)Oc1ccccc1C(=O)O` [Aspirin, aspirin], the ED50 was found to be 80 mg/kg in assay [1] (0.5 h, mice, s.c. route, dose inhibiting by 50% the contortions induced by phenylbenzoquinone i.p. 30 minutes after product, read-out: ED-50 S.C. route) and 100 mg/kg in assay [1] (1 h, mice, oral route, dose inhibiting by 50% the contortions induced by phenylbenzoquinone i.p. 60 minutes after product, read-out: ED-50 Oral route).

For the compound `OC1(c2ccc(Cl)cc2)CCN(CCCCn2cc(Cl)cn2)CC1` [Example 5], in assay [1] (setting [3]), the “ED-50 Oral route” value is reported as 20 mg/kg. In addition, the “ED-50 S.C. route” value in assay [1] (setting [4]) is on record as 28 mg/kg.

Turning to `CN1CC[C@]23c4c5ccc(O)c4O[C@H]2[C@@H](O)C=C[C@H]3[C@H]1C5` [Morfine, morphine], the ED50 amounted to 2 mg/kg in assay [2]; 1 mg/kg in assay [1] (0.5 h, read-out: ED-50 S.C. route); 4 mg/kg in assay [1] (1 h, read-out: ED-50 Oral route).
